Reference: ChEMBL document CHEMBL1914398, “Synthesis and evaluation of novel N-fluoropyridyl derivatives of tropane as potential PET imaging agents for the dopamine transporter” (Bioorg Med Chem Lett, 2011)

Assays:
[1] = biological target: Sodium-dependent dopamine transporter (Homo sapiens, UniProt Q01959); test: Displacement of [125I]-IPT from DAT transfected in pig LLC-PK1 cells by radioligand competition binding assay; format: cell-based
[2] = biological target: Sodium-dependent serotonin transporter (Homo sapiens, UniProt P31645); test: Displacement of [125I]-IDAM from SERT transfected in pig LLC-PK1 cells by radioligand competition binding assay; format: cell-based
Sodium-dependent serotonin transporter, sequence (P31645 whole entry): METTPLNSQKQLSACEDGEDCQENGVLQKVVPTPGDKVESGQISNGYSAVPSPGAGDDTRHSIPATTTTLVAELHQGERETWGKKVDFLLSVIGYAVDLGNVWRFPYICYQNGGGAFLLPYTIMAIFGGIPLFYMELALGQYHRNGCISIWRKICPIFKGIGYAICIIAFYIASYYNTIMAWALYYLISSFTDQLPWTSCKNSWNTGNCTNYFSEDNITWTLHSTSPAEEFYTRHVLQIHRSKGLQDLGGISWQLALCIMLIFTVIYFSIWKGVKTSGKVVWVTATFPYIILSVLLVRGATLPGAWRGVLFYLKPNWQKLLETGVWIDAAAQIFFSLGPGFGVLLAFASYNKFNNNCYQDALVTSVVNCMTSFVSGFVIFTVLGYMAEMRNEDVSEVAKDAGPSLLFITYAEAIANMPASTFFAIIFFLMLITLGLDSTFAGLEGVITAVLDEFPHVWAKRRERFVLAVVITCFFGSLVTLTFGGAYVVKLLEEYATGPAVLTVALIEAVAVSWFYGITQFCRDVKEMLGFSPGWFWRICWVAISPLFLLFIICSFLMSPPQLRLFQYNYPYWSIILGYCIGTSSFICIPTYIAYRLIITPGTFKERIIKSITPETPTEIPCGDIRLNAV

[3] = biological target: Sodium-dependent noradrenaline transporter (Homo sapiens, UniProt P23975); test: Displacement of [125I]-INXT from NET transfected in pig LLC-PK1 cells by radioligand competition binding assay; format: cell-based
Sodium-dependent noradrenaline transporter, sequence (P23975 whole entry): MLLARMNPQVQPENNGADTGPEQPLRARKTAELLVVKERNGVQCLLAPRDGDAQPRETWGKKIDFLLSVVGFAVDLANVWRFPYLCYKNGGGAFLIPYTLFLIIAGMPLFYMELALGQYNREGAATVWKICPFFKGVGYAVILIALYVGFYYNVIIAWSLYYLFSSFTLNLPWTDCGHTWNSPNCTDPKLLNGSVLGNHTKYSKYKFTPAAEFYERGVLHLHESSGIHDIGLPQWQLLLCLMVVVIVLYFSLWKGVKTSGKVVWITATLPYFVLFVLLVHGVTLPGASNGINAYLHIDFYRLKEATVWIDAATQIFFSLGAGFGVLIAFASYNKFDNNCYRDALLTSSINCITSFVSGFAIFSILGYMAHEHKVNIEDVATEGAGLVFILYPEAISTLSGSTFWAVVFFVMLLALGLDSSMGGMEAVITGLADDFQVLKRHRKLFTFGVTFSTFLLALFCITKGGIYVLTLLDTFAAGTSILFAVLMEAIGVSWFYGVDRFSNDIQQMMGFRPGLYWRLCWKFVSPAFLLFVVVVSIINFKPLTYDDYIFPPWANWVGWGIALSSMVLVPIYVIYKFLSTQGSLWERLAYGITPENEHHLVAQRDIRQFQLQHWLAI

[4] = Selectivity ratio of Ki for SERT to Ki for DAT
[5] = Selectivity ratio of Ki for NET to Ki for DAT

Sodium-dependent dopamine transporter, sequence (Q01959 whole entry): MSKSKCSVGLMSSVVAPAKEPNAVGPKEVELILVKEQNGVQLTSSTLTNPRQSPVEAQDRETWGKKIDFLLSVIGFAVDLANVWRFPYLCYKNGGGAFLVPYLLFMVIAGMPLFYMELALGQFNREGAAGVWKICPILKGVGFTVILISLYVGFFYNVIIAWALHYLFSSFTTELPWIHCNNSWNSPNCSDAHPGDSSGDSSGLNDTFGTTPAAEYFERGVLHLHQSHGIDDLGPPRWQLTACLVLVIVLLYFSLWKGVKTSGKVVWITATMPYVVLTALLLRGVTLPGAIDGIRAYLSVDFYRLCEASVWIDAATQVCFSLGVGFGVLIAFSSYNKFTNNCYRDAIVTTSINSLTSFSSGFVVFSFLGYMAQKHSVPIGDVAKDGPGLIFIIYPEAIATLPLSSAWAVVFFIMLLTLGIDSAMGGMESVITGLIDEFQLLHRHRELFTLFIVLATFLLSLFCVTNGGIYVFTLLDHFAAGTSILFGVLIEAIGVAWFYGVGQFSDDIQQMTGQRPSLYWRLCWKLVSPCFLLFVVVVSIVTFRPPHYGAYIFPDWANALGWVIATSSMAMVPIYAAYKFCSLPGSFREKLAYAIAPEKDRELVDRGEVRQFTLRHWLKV

| Compound | Ki [1] [nM] | Ki [2] [nM] | Ki [3] [nM] | Ratio Ki [4] | Ratio Ki [5] |
| --- | --- | --- | --- | --- | --- |
| CN1C2CCC1[C@@H](C(=O)Nc1cccc(Br)n1)[C@@H](c1ccc(Cl)cc1)C2 (stereo partly specified) | 86.7 | 3210 | 3850 | 37 | 44 |
| CN1C2CCC1[C@@H](C(=O)Nc1ccc(Br)nc1)[C@@H](c1ccc(Cl)cc1)C2 (stereo partly specified) | 106 | 15300 | 16200 | 144 | 153 |
| CN1C2CCC1[C@@H](C(=O)Nc1ccnc(Br)c1)[C@@H](c1ccc(Cl)cc1)C2 (stereo partly specified) | 82.2 | 10300 | 12100 | 125 | 147 |
| CN1C2CCC1[C@@H](CNc1ccc(Br)nc1)[C@@H](c1ccc(Cl)cc1)C2 (stereo partly specified) | 17.9 | 10.5 | 49.1 | 0.6 | 2.7 |
| COC(=O)[C@@H]1C2CCC(C[C@@H]1c1ccc(Cl)cc1)N2C (stereo partly specified) | 5.1 |  |  |  |  |
| CN1C2CCC1[C@@H](C(=O)Nc1cccc(F)n1)[C@@H](c1ccc(Cl)cc1)C2 (stereo partly specified) | 127 | 29100 | 16900 | 229 | 133 |
